Consider one substance from publication PMC8522701 (Journal of nuclear medicine : official publication, Society …, 2012).

The subject of series [1] is Raji lymphoma mouse model. As to conditions: in vivo; cited from earlier work.
The test system of series [2] is VLA-4–positive B16F10 mouse melanoma cells. Description: Cellular uptake assay, VLA-4-positive B16F10 cells. The class given is cell-based. As to conditions: 60 min, 37°C, P < 0.05.
Series [3] relates to VLA-4–negative MDA-MB-231/fluc human breast cancer tumor cells. Description: Cellular uptake assay, VLA-4-negative MDA-MB-231/fluc cells. As to conditions: coincubation with 1 μM nonradioactive ligand, 60 min, 37°C; P = 0.3. It is filed as cell-based.

With “^64Cu-labeled 11-bis(carboxymethyl)-1,4,8,11-tetraazabicyclo[6.6.2] hexadecane (CB-TE2A)-LLP2A [^64Cu-CB-TE2A-LLP2A]”, in series [1], the “tracer uptake in tissues of Raji lymphoma mouse model” value is “uptake in the tumor, spleen, and bone marrow”. Moreover, the “cellular uptake (sum of internalized and cell surface-bound fractions) in B16F10 cells relative to MDA-MB-231 cells” value in series [2] (1 nM tracer, cpm/mg protein) was “higher”. In series [2] (coincubation with 1 μM nonradioactive ligand), the “blocking of cellular uptake with cold LLP2A in B16F10 cells” value was “blocking with cold LLP2A was observed”. Also, in series [3], the “blocking of cellular uptake with cold LLP2A in MDA-MB-231/fluc cells” value is listed as “no significant blocking”.
